Laboratory results reported in US20160029629A1, “LAWN GROWTH-PROMOTING AGENT AND METHOD OF USING SAME” (BAYER CROPSCIENCE AKTIENGESELLSCHAFT, priority 2013, published 2016).

What was measured:
Zoysia Matrella = experiment: Biological Example 1: sod growth test, weight of roots, runners and erect stems after spray treatment; format: in vivo; details: for Roots weight: 334 ppm spray, 2,000 L/ha; for Roots weight / Erect stem weight / Erect stems/runners / Roots weight vs. untreated / Roots/(roots + runners + erect stems) / Roots/runners / Runner weight: 170 days later; for Erect stem weight / Erect stems/runners / Roots weight vs. untreated / Roots/(roots + runners + erect stems) / Roots/runners / Runner weight: 334 ppm spray
Excerpt: Test crop: Zoysia Matrella
Test method: Z. Matrella sod was laid in a roughly 15 cm checked pattern, and, approximately one month later, penflufen prepared to a predetermined concentration (Cerenturf Forte; aqueous suspension of 22.7 wt % penflufen and 77.3% surfactant and water, prepared according to a normal method) was sprayed thereon (2,000 L/ha). 170 days later, a hole cutter was used to cut out sod sections and interstitial sections, the sections were separated into roots, runners, and erect stems, and the weight of each was measured.

Agrostis stolonifera = experiment: Biologic Example 2: seeded lawn test, length of above-ground and root portions after soil treatment; format: in vivo
Procedure: Test crop: Agrostis stolonifera Test method: Plastic cups (diameter 20 cm, depth 5 cm) were filled with a soil mixture (1:1 mixture of sand and mulch), the soil was treated (2,000 L/ha water) with penflufen prepared to a predetermined concentration (Cerenturf Forte) on the day A. stolonifera was planted and at 0.5 leaf cycles, after which germination state was examined. In order to ensure evenness of irrigation, an atomizer was used for a fixed number of pushes, and water amount was monitored so as to be uniform. A basal application was not used. Examination method: Cuttings were taken at random from the test area, and the lengths of the above-ground and root portions were measured.

[1] = test system: brown patch (Rhizoctonia solani); details: in vivo; cited from earlier work
[2] = 142 ppm, treated at 0.5 leaf cycles, 5 days after treatment
[3] = 142 ppm, treated on day of planting, 20 days after treatment
[4] = 283 ppm, treated at 0.5 leaf cycles, 5 days after treatment
[5] = 283 ppm, treated on day of planting, 20 days after treatment
[6] = 525 ppm, treated at 0.5 leaf cycles, 5 days after treatment
[7] = 525 ppm, treated on day of planting, 20 days after treatment

Cc1nn(C)c(F)c1C(=O)Nc1ccccc1C(C)CC(C)C (stereo not shown) [Penflufen, N-[2-(1,3-dimethylbutyl)phenyl]-5-fluoro-1,3-dimethyl-1H-pyrazol-4-carboxamide]
Amount of roots compared to the untreated area (Zoysia Matrella; both the interstitial section and the sod section): increase in the amount of roots
Ratio of the root weight to the total weight of the roots, runners, and erect stems, treated vs untreated area (Zoysia Matrella; in vivo): higher in the treated area than in the untreated area
Amount of roots compared to the untreated area (Zoysia Matrella; interstitial section): especially marked increase
Roots weight (Zoysia Matrella; interstitial section): 1.13 g
Erect stem weight (Zoysia Matrella; interstitial section): 4.57 g
Erect stems/runners (Zoysia Matrella; interstitial section): 124%
Roots weight vs. untreated (Zoysia Matrella; interstitial section): 127%
Roots/(roots + runners + erect stems) (Zoysia Matrella; interstitial section): 12.02%
Roots/runners (Zoysia Matrella; interstitial section): 31%
Runner weight (Zoysia Matrella; interstitial section): 3.70 g
Roots weight (Zoysia Matrella; sod section): 1.57 g
Erect stem weight (Zoysia Matrella; sod section): 11.52 g
Erect stems/runners (Zoysia Matrella; sod section): 130%
Roots weight vs. untreated (Zoysia Matrella; sod section): 103%
Roots/(roots + runners + erect stems) (Zoysia Matrella; sod section): 7.16%
Roots/runners (Zoysia Matrella; sod section): 18%
Runner weight (Zoysia Matrella; sod section): 8.84 g
Above-ground portion (mm) (Agrostis stolonifera; [2]): 18.8 mm
Roots (mm) (Agrostis stolonifera; [2]): 3.9 mm
Roots/above-ground portion % (Agrostis stolonifera; [2]): 20.6%
Above-ground portion (mm) (Agrostis stolonifera; [3]): 15.9 mm
Roots (mm) (Agrostis stolonifera; [3]): 3.3 mm
Roots/above-ground portion % (Agrostis stolonifera; [3]): 20.8%
Above-ground portion (mm) (Agrostis stolonifera; [4]): 17.3 mm
Roots (mm) (Agrostis stolonifera; [4]): 3.5 mm
Roots/above-ground portion % (Agrostis stolonifera; [4]): 20.1%
Above-ground portion (mm) (Agrostis stolonifera; [5]): 17.3 mm
Roots (mm) (Agrostis stolonifera; [5]): 3.2 mm
Roots/above-ground portion % (Agrostis stolonifera; [5]): 18.8%
Root growth relative to above-ground portions (Agrostis stolonifera; registered weight (283 ppm) and half-weight, planting day and 0.5 leaf cycle treatment): root growth tended to be promoted over that of above-ground portions
Effectiveness against brown patch [1]: extremely effective

Cc1nc(C(F)(F)F)c(C(=O)Nc2c(Br)cc(OC(F)(F)F)cc2Br)s1 [Thifluzamide]
Above-ground portion (mm) (Agrostis stolonifera; [6]): 16.9 mm
Roots (mm) (Agrostis stolonifera; [6]): 2.0 mm
Roots/above-ground portion % (Agrostis stolonifera; [6]): 12.0%
Above-ground portion (mm) (Agrostis stolonifera; [7]): 15.3 mm
Roots (mm) (Agrostis stolonifera; [7]): 1.4 mm
Roots/above-ground portion % (Agrostis stolonifera; [7]): 9.1%
